From US20160264616A1, “THERAPEUTIC COMPOUNDS AND METHODS” (priority 2015, published 2016) come the findings set out here.

The target of data set [1] is T1, RGS17-accelerated Gαo GTPase activity (Homo sapiens, UniProt Q9UGC6).
T1 construct: This is the same RGS17 construct used in the high throughput screening campaign that is fully active despite the N-terminal truncation; made in house
T1 sequence (Q9UGC6 72-206 limits assumed): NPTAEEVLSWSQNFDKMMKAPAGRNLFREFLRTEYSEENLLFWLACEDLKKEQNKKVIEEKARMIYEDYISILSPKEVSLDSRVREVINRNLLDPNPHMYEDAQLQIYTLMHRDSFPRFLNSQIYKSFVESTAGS
The experiment in a line: Malachite green steady-state GTPase assay (RGS17 GAP activity). It is filed as biochemical. The protocol: Next, the ability of the compounds to inhibit the “GAP” activity of RGS17 was examined. The compounds were tested using a previously described malachite green assay (18), which allows for the detection of free phosphate liberated during the enzymatic cleavage of GTP to GDP by G alpha subunits.
First, stock solutions of each of the 3 components of the developing solution were prepared according to Monroy et al (18). In brief, Compounds were seeded using a half-log dilution with the highest final concentration of compound at 100 μM down to 1 nM. […] A 4×GTP at 1.2 mM diluted in MGB, was used, with a final concentration of 300 μM. To terminate the reaction, 10 μL of a Developing Solution (DS) was 50:12.5:1 (malachite:molybdate:Tween-20) was added to each well using a Microlab Star liquid handling robot (Hamilton Robotics; Reno, Nev.), this achieved a final ratio 4:1 (sample:developing solution) absorbance was read at 642 nm.

The target of another data set is T2, RGS17 (Homo sapiens, UniProt Q9UGC6).
T2 construct: This is the same RGS17 construct used in the high throughput screening campaign that is fully active despite the N-terminal truncation; made in house
T2 sequence (Q9UGC6 84-200 limits assumed): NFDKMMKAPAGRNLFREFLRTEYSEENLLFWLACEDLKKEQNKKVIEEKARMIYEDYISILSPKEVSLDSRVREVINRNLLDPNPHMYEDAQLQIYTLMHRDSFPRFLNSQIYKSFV
The data set is described as follows: Isothermal titration calorimetry (ITC). It is filed as binding. The settings on record: for Gibbs free energy of binding / binding enthalpy ΔH / entropic component TΔS / Kd: ITC; for Kd: 25 C, read-out: dissociation constant (Kd).

A further data set addresses RGS4 (Homo sapiens, UniProt P49798). The experiment in a line: Selectivity versus RGS4. Format: biochemical. How it is done: Characterization of UI-5, UI-1590 and UI-1956 to determine mechanism of action focused initially on the determination of the potential irreversible modification of the RGS protein by the compounds. […] These compounds were tested for selectivity versus RGS4 which was chosen as a model protein due to its high level of sensitivity to thiol modification (18).

The subject of data set [2] is RGS17ΔN:Gαo interaction in HEK293T cells. The experiment in a line: RGS localization assay, GFP-RGS17ΔN co-transfected with hGαo in HEK293T cells. It is filed as cell-based, human. How it is done:
HEK293T cells co-transfected with GFP-RGS17FL and human Gαo were treated with UI-5, UI-1590 and […] to determine if the compounds could disrupt the RGS17:Gαo interaction that could drive RGS17 to the membrane. […] To test this hypothesis, we constructed a GFP-RGS17 fusion protein with an N-terminal truncation, removing the cysteine-rich motif. […] As a negative control, we tested a known RGS4 inhibitor (CCG-50014) in this assay against RGS17ΔN (21). […] Finally, to ensure the localization was not due to the GFP tag, pAcGFP vector was co-transfected into HEK293T cells with hGαo. […] Cross-sectional fluorescence intensity analysis was used to quantify the intensity of signal at a cross section of the cell. Average signal at the membrane and in the cytoplasm were calculated and change in signal intensity was assessed between time zero and time final. […] Additionally, the control condition of CCG-50014 was subject to the same analyses as the lead compound.
Twenty four (24) hours prior to plating, assay plates were coated with 30 μl poly-D-lysine per well. Human Embryonic Kidney 293T cells (HEK293T) were plated in to 96 well tissue culture treated glass bottom view plates (Perkin Elmer, Part No. 6005430) at a density of 25K cells per well. 24 hours post seeding, cells were transfected with hGαo in pCDNA 3.1(+), pAcGFPRGS17 FL, pAcGFP RGS17ΔN, empty pAcGFP, hGαo+pAcGFPRGS17 FL, hGαo+pAcGFP RGS17ΔN, or hGαo+empty pAcGFP vector using Lipofectamine 2000 (Life Technologies) as the transfection reagent and according to manufacture protocols. 24 hours post transfection, cell media was removed and replaced with […] serum free, phenol red free DMEM (Life Technologies, Ref No. 31053-028). Cells were then imaged using a Zeiss LSM510 confocal microscope (University of Iowa Central Microscopy Core). Images were analyzed using NIH Image J software and Graphpad Prism 6.
Compounds at 2× final desired concentrations were diluted in serum free, phenol red free DMEM.

Data set [3] in a line: Solubility in aqueous ITC buffer.
[4] abbreviates: malachite green, n=3, read-out: IC50 for inhibition of RGS17 GAP activity.

“Also recorded” adds a separate entry of the source. Where two headings read alike, the source gives them in different places.

RGS4, sequence (P49798 whole entry, species assumed): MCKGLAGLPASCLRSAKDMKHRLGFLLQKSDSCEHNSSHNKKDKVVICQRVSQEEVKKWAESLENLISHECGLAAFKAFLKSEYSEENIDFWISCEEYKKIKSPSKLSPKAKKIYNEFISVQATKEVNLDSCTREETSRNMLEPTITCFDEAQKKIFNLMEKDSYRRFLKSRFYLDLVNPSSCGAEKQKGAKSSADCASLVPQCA

As to `C[n+]1cc2c3c(ccc2c2ccc4cc5c(cc4c21)OCO5)OCO3` [UI-5], the IC50 in data set [1] (setting [4]) stood at 12 µM. Also, at RGS17, the “dissociation constants as determined by isothermal titration calorimetry (summary)” value (shortened to “dissociation constants as determined”) is recorded as “low μM to nM”, the “Gibbs free energy of binding” value is -8.168 kcal/mol, the “binding enthalpy ΔH” value was -0.148 kcal/mol and the “entropic component TΔS” value was found to be 8.0202 kcal/mol. Besides, the Kd at RGS17 was 1.02 µM. Also, at RGS4, the “inhibition of RGS4” value is “inhibited both RGS-4 and RGS-17”; the “selectivity RGS17 versus RGS4” value is reported as “more selective for RGS17”. Also, in data set [2] (10 μM compound), the “delocalization / cellular activity” value is recorded as “had cellular activity” and the “time to full delocalization of GFP-RGS17 from the membrane” value (from here on “time to full delocalization of GFP-RGS17”) came to 30 min. Further, in data set [2] (100 μM compound), the “delocalization of RGS17ΔN from the membrane” value (“delocalization of RGS17ΔN” below) is “delocalization occurs” and the “time to full delocalization of GFP-RGS17” value stood at 5 min. Further, the “solubility at the high concentration needed for ITC” value (from here on “solubility”) in data set [3] is recorded as “soluble in the aqueous buffer”.

In data set [1], `CC1=C(O)C(=O)C=C2C1=CC=C1[C@@]2(C)CC[C@@]2(C)[C@@H]3C[C@](C)(C(=O)O)CC[C@]3(C)CC[C@]12C` [UI-1590] registered a half-inhibitory concentration (IC50) of 6 µM. Moreover, the IC50 in data set [1] (setting [4]) was found to be 6.36 µM. Further, the “dissociation constants as determined” value on RGS17 is reported as “low μM to nM”. Moreover, on RGS4, the “inhibition of RGS4” value was “inhibited both RGS-4 and RGS-17”; the “selectivity RGS17 versus RGS4” value was “more selective for RGS17”. For the same compound, in data set [2] (10 μM compound), the “delocalization / cellular activity” value is “had cellular activity” and the “time to full delocalization of GFP-RGS17” value is recorded as 20 min. Also, in data set [2] (100 μM compound), the “delocalization of RGS17ΔN” value is given as “delocalization occurs” and the “time to full delocalization of GFP-RGS17” value is 5 min. The “solubility” value in data set [3] is “not soluble at the high concentration required; also recorded: not amendable to ITC due to solubility issues”.

As to `CC(C)=CCC[C@]1(C)C=Cc2c(O)c3c(c(CC=C(C)C)c2O1)O[C@]12C(=C[C@@H]4C[C@H]1C(C)(C)O[C@@]2(C/C=C(/C)C(=O)O)C4=O)C3=O` [UI-1907], the “delocalization of RGS17ΔN” value in data set [2] (100 μM compound) is given as “not”.

As to `O=c1c(-c2cc(O)c(O)c(O)c2)coc2cc(O)c(O)c(O)c12` [UI-1956, 5,6,7-trihydroxy-3-(3,4,5-trihydroxyphenyl)-4H-chromen-4-one], the half-maximal inhibitory concentration (IC50) in data set [1] (setting [4]) was found to be 35 µM. In addition, on RGS17, the “dissociation constants as determined” value is given as “low μM to nM”, the “Gibbs free energy of binding” value was -8.389 kcal/mol, the “binding enthalpy ΔH” value was -2.158 kcal/mol and the “entropic component TΔS” value is 6.2313 kcal/mol. In addition, on RGS17, the Kd worked out at 0.714 µM. For the same compound, the “selectivity RGS17 versus RGS4” value at RGS4 is “selective for RGS17”. Besides, in data set [2] (10 μM compound), the “delocalization / cellular activity” value is reported as “had cellular activity” and the “time to full delocalization of GFP-RGS17” value was 30 min. In data set [2] (100 μM compound), the “delocalization of RGS17ΔN” value is on record as “delocalization occurs” and the “time to full delocalization of GFP-RGS17” value amounted to 20 min. Besides, the “solubility” value in data set [3] is recorded as “soluble in the aqueous buffer”.
